Assay results from patent US12491184B2 (Veradermics, Incorporated, priority 2022, dated 2025).

Key:
mice = conditions: dietary, up to 2 years, 63 mg/kg/day; cited from earlier work
male adults with AGA = conditions: cited from earlier work
dogs = conditions: short-term administration 0.5 mg to 10 mg/kg/day; cited from earlier work
[1] = oral; cited from earlier work
[2] = system: patient with androgenetic alopecia; conditions: 1.25 mg QID
animal = conditions: long term animal studies; cited from earlier work
patients = conditions: cited from earlier work
[3] = 2.5 mg, 5 mg, or 10 mg oral; cited from earlier work

## Nc1cc(N2CCCCC2)nc(N)[n+]1[O-] [minoxidil]
mice
  incidence of hepatic nodules in males: increased incidence of hepatic nodules
Male adults with AGA; 5 mg oral at bedtime, 24 weeks
  adverse cardiovascular outcomes: No adverse cardiovascular outcomes
  change in mean heart rate: no overall change in mean heart rate
  laboratory variables before versus after treatment: no differences
Male adults with AGA; at the follow-up visit
  subjects developing tachycardia: 1 subject
dogs
  cardiac findings: various cardiac lesions
[1]
  absorbed from the gastrointestinal tract: > 90%
[2]
  unwanted hair growth or other adverse events: No unwanted hair growth or other adverse events, including any cardiac effects
animal
  cardiac findings: cardiac hypertrophy, cardiac dilation, and serosanguineous pericardial fluid
patients; human, in vivo
  emergence of hypertrichosis signs after starting treatment: 3-6 weeks
  spontaneous reversal of hypertrichosis after cessation of therapy: 1-6 months
patients; treated patients
  occurrence of hypertrichosis: most patients
[3]
  differences in systolic and diastolic blood pressure (time effects within treatments): less than 10%
  effect on blood pressure in normotensive subjects: little effect on blood pressure
